From US6461997B1, “Triazole sulfones having herbicidal activity” (Monsanto Technology LLC, priority 1999, dated 2002)

Assays:
barley (HORVX) = experiment: Selectivity test, PPI, cool season crop; assay type: in vivo, Hordeunm vulgare; conditions: PPI application; for inhibition at 10 g/ha / inhibition at 30 g/ha / inhibition at 100 g/ha / inhibition at 300 g/ha / inhibition at 900 g/ha: Hordeum vulgare, read-out: Percent inhibition HORVX
Experimental: (§1) A pre-prepared topsoil mixture (described above) was placed in a pot and compacted to a depth of 1.0 to 1.25 cm from the top of the pot. Seeds of each of several monocotyledonous and dicotyledonous annual plant species were placed on top of the soil. A sufficient quantity of soil to cover the seeds and level fill the pot was weighed into an open container. A known amount of the test compound was dissolved or suspended in an organic solvent and applied by spraying to this cover soil. The cover soil was thoroughly mixed to distribute the test compound throughout the cover soil, and was then applied as a cover layer over the seeds. Untreated soil was used as a cover layer for control pots. After treatment the plants were placed in a greenhouse where they received 0.64 cm of overhead irrigation. All subsequent watering consisted of a light overhead mist and/or subirrigation as needed for germination and growth. Tables 9 and 10 below relate to warm season plant species which were placed after pre-emergence treatment in a greenhouse with a 30/21° C. day/night temperature regime. Tables 11 and 12 below relates to cool season plant species placed after pre-emergence treatment in a greenhouse or growth chamber with an 18/13° C. day/night temperature regime. Only the compounds of Examples 1, 6, 8, 11, 13 and 15-20 were included in PPI tests.
(§2) Approximately 14 days after planting and treating, the plants were observed and herbicidal efficacy recorded as percent inhibition by comparison with untreated plants.
(§3) Additional pre-emergence and PPI tests were conducted by the procedures described above, on warm and cool season weed species in the presence of crop species, to assess herbicidal selectivity. Crop species included in warm season tests were corn (Zea mays, ZEAMX), rice (Oryza sativa, ORYSA) and soybean (Glycine max, GLYMX). Crop species included in cool season tests were wheat (Triticum aestivum, TRZAW), barley (Hordeunm vulgare, HORVX) and oilseed rape (Brassica napus, BRSNS).
(§4) Tables 15 and 16 relate to pre-emergence and PPI tests respectively on warm season species. Table 17 relates to pre-emergence tests on cool season species.

[1] = tested on: AGSST (creeping bentgrass); experiment: Post-emergence herbicidal activity, cool season; assay type: in vivo, Agrostis stolonifera; conditions: abraded plants sprayed at 300, 100, 30 and 10 g/ha; about 14 days after treatment
Procedure, shortened: (§5)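 Seeds sown in topsoil, covered with 50% topsoil/50% Rediearth™, subirrigated. At 9 to 14 days, foliage abraded, then sprayed at 300, 100, 30 or 10 g/ha in acetone/water 50:50. Plants held at 18/13° C. day/night, rated for % inhibition at ~14 days, GR80 assigned.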

oilseed rape (BRSNS) = experiment: Selectivity test, PPI, cool season crop; assay type: in vivo, Brassica napus; conditions: PPI application; for inhibition at 10 g/ha / inhibition at 30 g/ha / inhibition at 100 g/ha / inhibition at 300 g/ha / inhibition at 900 g/ha: Brassica napus, read-out: Percent inhibition BRSNS
Experimental: as §1, §2, §3, §4

ECHCG (barnyardgrass) = experiment: Pre-emergence herbicidal activity, warm season; assay type: in vivo, Echinochloa crus-galli; conditions: GR80 = lowest tested rate (300, 100, 30, 10 g/ha) with 80% or greater inhibition; approx. 14 days after treating; 30/21° C.
Procedure, shortened: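 Activity is expressed as the rate giving 80% inhibition, with 300, 100, 30 and 10 g/ha typically tested. An asterisk marks activity short of 80% at the top rate. Warm-season grasses were held at 30/21 °C; cool-season blackgrass and wild buckwheat at 18/13 °C; scoring at about 14 days.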

BROTE (downy brome) = experiment: Post-emergence herbicidal activity, cool season; assay type: in vivo, Bromus tectorum; conditions: abraded plants sprayed at 300, 100, 30 and 10 g/ha; about 14 days after treatment
Procedure, shortened: as §5

corn (ZEAMX) = experiment: Selectivity test, PPI, warm season crop; assay type: in vivo, Zea mays; conditions: PPI application; for inhibition at 10 g/ha / inhibition at 30 g/ha / inhibition at 100 g/ha / inhibition at 300 g/ha / inhibition at 900 g/ha: Zea mays, read-out: Percent inhibition ZEAMX
Experimental: as §1, §2, §3, §4

Row | Structure (SMILES) | Percent inhibition HORVX (barley (HORVX); 10 g/ha) [%] | Percent inhibition HORVX (barley (HORVX); 30 g/ha) [%] | Percent inhibition HORVX (barley (HORVX); 100 g/ha) [%] | Percent inhibition HORVX (barley (HORVX); 300 g/ha) [%] | Percent inhibition HORVX (barley (HORVX); 900 g/ha) [%] | Post-emergence activity GR80, AGSST [1] | Percent inhibition BRSNS (oilseed rape (BRSNS); 10 g/ha) [%] | Percent inhibition BRSNS (oilseed rape (BRSNS); 30 g/ha) [%] | Percent inhibition BRSNS (oilseed rape (BRSNS); 100 g/ha) [%] | Percent inhibition BRSNS (oilseed rape (BRSNS); 300 g/ha) [%] | Percent inhibition BRSNS (oilseed rape (BRSNS); 900 g/ha) [%] | Pre-emergence activity (GR80) ECHCG (ECHCG (barnyardgrass)) | Post-emergence activity GR80, BROTE (BROTE (downy brome)) | Percent inhibition ZEAMX (corn (ZEAMX); 10 g/ha) [%] | Percent inhibition ZEAMX (corn (ZEAMX); 30 g/ha) [%] | Percent inhibition ZEAMX (corn (ZEAMX); 100 g/ha) [%] | Percent inhibition ZEAMX (corn (ZEAMX); 300 g/ha) [%] | Percent inhibition ZEAMX (corn (ZEAMX); 900 g/ha) [%] | inhibition at 10 g/ha (barley (HORVX); 10 g/ha) [%] | inhibition at 30 g/ha (barley (HORVX); 30 g/ha) [%] | further results
1 | CCN(CC)C(=O)n1cnc(S(=O)(=O)C(F)(F)SCc2ccccc2)n1 [Example 10] | 0 | 0 | 0 | 0 | 20 | [empty] | 0 | 0 | 0 | 50 | 95 | 300 g/ha | [empty] | 0 | 0 | 0 | 10 | 40 | – | – | –
2 | CCN(CC)C(=O)n1cnc(S(=O)(=O)C(F)(F)SCC(=O)OC)n1 [Example 11] | 0 | 0 | 0 | 0 | 10 | [empty] | 0 | 0 | 0 | 0 | 0 | * (activity observed, at least at highest rate, but <80% inhibition) | [empty] | 0 | 0 | 0 | 0 | 10 | – | – | –
3 | CCN(CC)C(=O)n1cnc(S(=O)(=O)C(F)(F)SCCOC)n1 [Example 13] | 0 | 0 | 20 | 10 | 40 | [empty] | 0 | 0 | 0 | 70 | 30 | 300 g/ha | [empty] | 0 | 0 | 5 | 10 | 50 | – | – | –
4 | C=CCC(F)(F)S(=O)(=O)c1ncn(C(=O)N(CC)CC)n1 [Example 17, 1-(N,N-diethylcarbamoyl)-3-[(1,1-difluoro-3-butenyl)sulfonyl]-1,2,4-triazole] | – | – | – | – | – | 300 g/ha | – | – | – | – | – | 100 g/ha | [empty] | – | – | – | – | – | 0 | 0 | inhibition at 100 g/ha (barley (HORVX); 100 g/ha): 10%; inhibition at 300 g/ha (barley (HORVX); 300 g/ha): 30%; inhibition at 900 g/ha (barley (HORVX); 900 g/ha): 60%; inhibition at 10 g/ha (oilseed rape (BRSNS); 10 g/ha): 0%; inhibition at 30 g/ha (oilseed rape (BRSNS); 30 g/ha): 0%; inhibition at 100 g/ha (oilseed rape (BRSNS); 100 g/ha): 0%; inhibition at 300 g/ha (oilseed rape (BRSNS); 300 g/ha): 60%; inhibition at 900 g/ha (oilseed rape (BRSNS); 900 g/ha): 95%; inhibition at 10 g/ha (corn (ZEAMX); 10 g/ha): 0%; inhibition at 30 g/ha (corn (ZEAMX); 30 g/ha): 0%; inhibition at 100 g/ha (corn (ZEAMX); 100 g/ha): 20%; inhibition at 300 g/ha (corn (ZEAMX); 300 g/ha): 30%; inhibition at 900 g/ha (corn (ZEAMX); 900 g/ha): 95%
5 | C=C(C)CC(F)(F)S(=O)(=O)c1ncn(C(=O)N(CC)CC)n1 [Example 18] | – | – | – | – | – | [empty] | – | – | – | – | – | 100 g/ha | [empty] | – | – | – | – | – | 0 | 0 | inhibition at 100 g/ha (barley (HORVX); 100 g/ha): 0%; inhibition at 300 g/ha (barley (HORVX); 300 g/ha): 10%; inhibition at 900 g/ha (barley (HORVX); 900 g/ha): 60%; inhibition at 10 g/ha (oilseed rape (BRSNS); 10 g/ha): 0%; inhibition at 30 g/ha (oilseed rape (BRSNS); 30 g/ha): 0%; inhibition at 300 g/ha (oilseed rape (BRSNS); 300 g/ha): 20%; inhibition at 900 g/ha (oilseed rape (BRSNS); 900 g/ha): 100%; inhibition at 10 g/ha (corn (ZEAMX); 10 g/ha): 0%; inhibition at 30 g/ha (corn (ZEAMX); 30 g/ha): 0%; inhibition at 100 g/ha (corn (ZEAMX); 100 g/ha): 10%; inhibition at 300 g/ha (corn (ZEAMX); 300 g/ha): 15%; inhibition at 900 g/ha (corn (ZEAMX); 900 g/ha): 20%
6 | C=C(Br)CC(F)(F)S(=O)(=O)c1ncn(C(=O)N(CC)CC)n1 [Example 19] | – | – | – | – | – | [empty] | – | – | – | – | – | 300 g/ha | [empty] | – | – | – | – | – | 0 | 0 | inhibition at 100 g/ha (barley (HORVX); 100 g/ha): 20%; inhibition at 300 g/ha (barley (HORVX); 300 g/ha): 20%; inhibition at 900 g/ha (barley (HORVX); 900 g/ha): 45%; inhibition at 10 g/ha (oilseed rape (BRSNS); 10 g/ha): 0%; inhibition at 30 g/ha (oilseed rape (BRSNS); 30 g/ha): 0%; inhibition at 100 g/ha (oilseed rape (BRSNS); 100 g/ha): 0%; inhibition at 300 g/ha (oilseed rape (BRSNS); 300 g/ha): 60%; inhibition at 900 g/ha (oilseed rape (BRSNS); 900 g/ha): 95%; inhibition at 10 g/ha (corn (ZEAMX); 10 g/ha): 0%; inhibition at 30 g/ha (corn (ZEAMX); 30 g/ha): 0%; inhibition at 100 g/ha (corn (ZEAMX); 100 g/ha): 10%; inhibition at 300 g/ha (corn (ZEAMX); 300 g/ha): 10%; inhibition at 900 g/ha (corn (ZEAMX); 900 g/ha): 35%
7 | C=C(CC(F)(F)S(=O)(=O)c1ncn(C(=O)N(CC)CC)n1)C[Si](C)(C)C [Example 20] | 0 | 0 | 0 | 10 | 30 | [empty] | 0 | 20 | 20 | 60 | 95 | 300 g/ha | [empty] | 0 | 0 | 0 | 20 | 40 | – | – | –
